Measured values: patent US4873237A, “2,3-dihydro- thiazolo- and thiazino- benzimidazoles as atni-hyper secretion agents” (John Wyeth & Brother Limited, priority 1983, dated 1989)

Tests used:
Male rats = test: stress-induced erosion test of Senay and Levine (anti-ulcer activity); format: in vivo; settings: dosed orally, cold restraint 3 hours
Protocol: Anti-ulcer activity was determined by the stressinduced erosion test of Senay and Levine, Proc. Soc. Exp. Biol. Med., 124, 1221-3 (1967). The procedure used was as follows.
Male rats, weighing between 80 and 120 gms. were fasted overnight with water ad lib. The rats were then divided into groups of six and dosed orally with the test drug in the form of a solution or with the vehicle alone, 0.5% carboxymethylcellulose, in a volume of 10ml/kg.
After 30 minutes the rats were inserted into aluminium restraining tubes measuring 15/8 inches in diameter by 5 inches and placed in the cold (4±1° C.) for 3 hours. Immediately after cold exposure the rats were killed with intracranial alcohol and their stomachs excised and opened along the greater curvature. Each stomach was washed gently free of contents with warm tap water and pinned out on a board. The condition of the gastric mucosa was then scored from 0 to 6 on the following scale:
The maximum possible score for each animal was 6 and for the group 36. Decrease in ulcer formation was calculated as a percentage of the control score, i.e. [formula] The statistical significance of the effect is assessed by Student's t-test.

H^+ /K^+ ATPase = target: T1, H^+ /K^+ ATPase (Oryctolagus cuniculus, UniProt P27112); test: 14C-aminopyrine uptake in rabbit isolated gastric glands stimulated by DBcAMP or high K+; format: cell-based; settings: at 10^-4 M, read-out: % Inhibition to stimulation by K^+
T1 construct: Rabbit gastric glands are isolated from gastric mucosa from the corpus region of the stomach; from tissue; host or cells: rabbit isolated gastric glands (gastric mucosa, corpus region of the stomach)
Protocol: Compounds of formula I were also tested for anti-secretory activity by their ability to inhibit the highly specific proton transporting enzyme H^+ /K^+ ATPase.
Potential H^+ /K^+ ATPase inhibitors were evaluated by a technique involving the measurement of aminopyrine accumulation in rabbit isolated gastric glands. Aminopyrine accumulates in acid-secreting cells; therefore, uptake of aminopyrine is increased by secretagogues and an inhibitor of acid secretion will reduce the response to one or more secretagogues depending upon its site of action. Compounds which reduce the response to dibutyryl cyclic adenosine monophosphate (DBcAMP) stimulation are assumed to have an intracellular site of action; and those which reduce the response to both DBcAMP and high potassium ion concentration (K^+) are thought to have an intracellular site of action at the secretory surface of the parietal cell, involving the highly specific proton-transporting enzyme, H^+ /K^+ ATPase.
The following test procedure is used: […]
Compounds are tested at a concentration of 10^-4 M, initially, and in some cases at lower concentrations, for their ability to inhibit ^14 C-aminopyrine uptake in gastric glands, stimulated by DBcAMP and high K^+ respectively. Results are expressed as the % inhibition of the maximum response to the secretagogue induced by the test compound. […]

T1 sequence (P27112 2-1035 limits assumed): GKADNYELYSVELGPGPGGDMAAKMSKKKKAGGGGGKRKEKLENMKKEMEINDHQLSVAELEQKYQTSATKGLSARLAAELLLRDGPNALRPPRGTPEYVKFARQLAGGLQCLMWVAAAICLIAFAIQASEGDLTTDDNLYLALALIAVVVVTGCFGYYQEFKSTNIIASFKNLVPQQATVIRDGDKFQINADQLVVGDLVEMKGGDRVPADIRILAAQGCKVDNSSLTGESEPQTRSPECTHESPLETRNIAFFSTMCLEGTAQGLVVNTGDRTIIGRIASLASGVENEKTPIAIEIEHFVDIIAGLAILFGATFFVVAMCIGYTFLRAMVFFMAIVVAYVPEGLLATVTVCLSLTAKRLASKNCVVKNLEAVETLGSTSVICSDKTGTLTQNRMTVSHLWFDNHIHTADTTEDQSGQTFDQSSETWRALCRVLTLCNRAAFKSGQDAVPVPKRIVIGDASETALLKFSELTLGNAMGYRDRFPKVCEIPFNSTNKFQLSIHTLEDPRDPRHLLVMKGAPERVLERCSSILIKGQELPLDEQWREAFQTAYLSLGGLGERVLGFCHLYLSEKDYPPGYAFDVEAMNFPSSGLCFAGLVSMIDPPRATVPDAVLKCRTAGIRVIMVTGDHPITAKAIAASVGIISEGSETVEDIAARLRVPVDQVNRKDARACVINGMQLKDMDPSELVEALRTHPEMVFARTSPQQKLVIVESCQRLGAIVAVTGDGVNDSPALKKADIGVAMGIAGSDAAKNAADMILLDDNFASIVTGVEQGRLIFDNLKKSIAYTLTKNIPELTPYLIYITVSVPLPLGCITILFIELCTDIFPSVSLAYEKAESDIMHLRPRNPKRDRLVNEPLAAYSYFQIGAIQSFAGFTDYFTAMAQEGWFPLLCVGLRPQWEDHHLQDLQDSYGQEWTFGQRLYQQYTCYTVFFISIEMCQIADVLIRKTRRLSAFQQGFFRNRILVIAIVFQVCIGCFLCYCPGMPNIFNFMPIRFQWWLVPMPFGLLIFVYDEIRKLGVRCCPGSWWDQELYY
T1 sequence (P18597 whole entry partner): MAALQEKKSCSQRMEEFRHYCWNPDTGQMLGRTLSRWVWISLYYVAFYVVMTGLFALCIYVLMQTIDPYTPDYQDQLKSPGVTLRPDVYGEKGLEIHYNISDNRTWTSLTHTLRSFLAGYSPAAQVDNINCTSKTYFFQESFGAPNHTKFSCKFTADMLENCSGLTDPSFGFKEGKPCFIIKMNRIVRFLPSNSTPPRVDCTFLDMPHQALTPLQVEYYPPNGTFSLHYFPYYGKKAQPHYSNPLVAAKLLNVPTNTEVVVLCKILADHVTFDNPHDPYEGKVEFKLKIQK

Row | Compound | Inhibition (decrease in ulcer formation as percentage of control score) (Male rats; dose 100 mg/kg) [%] | inhibition at 100 µM (H^+ /K^+ ATPase) [%] | Inhibition (decrease in ulcer formation as percentage of control score) (Male rats; dose 30 mg/kg) [%]
1 | Cc1cc2nc3n(c2cc1C)CC(c1ccccn1)S3 (centres unmarked) [Example 9, 2,3-Dihydro-6,7-dimethyl-2-(2-pyridyl)thiazolo[3,2-a]benzimidazole] | 82 |  | 
2 | c1ccc(C2Cn3c(nc4ccccc43)S2)cc1 (centres unmarked) [Example 3, 2,3-Dihydro-2-phenylthiazolo[3,2-a]benzimidazole] | 74 |  | 
3 | Clc1cc2nc3n(c2cc1Cl)CC(c1ccccn1)S3 (centres unmarked) [Example 8, 6,7-Dichloro-2,3-dihydro-2-(2-pyridyl)thiazolo[3,2-a]benzimidazole] |  | 74 | 
4 | c1ccc(C2Cn3c(nc4ccccc43)S2)nc1 (centres unmarked) [Example 1, 2,3-Dihydro-2-(2-pyridyl)thiazolo[3,2-a]benzimidazole] | 75 |  | 86
